Earlier results, collected in PubChem BioAssay AID1259409 (Chemical Carcinogenesis Research Information System (CCRIS), 2018).

Tested on: rodent chemically induced tumor inhibition, incidence and multiplicity
Assay: CCRIS tumor inhibitor studies
Conditions: Dose [Inhibitor]: 0, Route [Inhibitor]: ORAL

Which “tumour outcome (control, treated, inhibition, significance)” value (Carcinogen: N-BIS(2-HYDROXYPROPYL)NITROSAMINE, 53609-64-6, 0.8% IN DIET FOR 30 WK BEGINNING POST CARCINOGEN TREATMENT (STUDY DURATION: 32 WK), Species: RAT, Strain/Sex: F344/MALE, Target Tissue: Type of Lesion: KIDNEY: PAPILLOMA OR TRANSITIONAL CELL CARCINOMA, Dose [Carcinogen]: 0.1% IN DRINKING WATER FOR 2 WK, Promoter: NONE USED) does the source give for `Oc1ccccc1O` here?
The value was 10%, 10%, 0%, not significant.

And the “tumour outcome (control, treated, inhibition, significance)” value (Carcinogen: N-BIS(2-HYDROXYPROPYL)NITROSAMINE, 53609-64-6, 0.8% IN DIET FOR 30 WK BEGINNING POST CARCINOGEN TREATMENT (STUDY DURATION: 32 WK), Species: RAT, Strain/Sex: F344/MALE, Target Tissue: Type of Lesion: LUNG: ADENOMA, Dose [Carcinogen]: 0.1% IN DRINKING WATER FOR 2 WK, Promoter: NONE USED)?
Its value is 100%, 95%, 5%, not calculated.

What about the “tumour outcome (control, treated, inhibition, significance)” value (Carcinogen: N-BIS(2-HYDROXYPROPYL)NITROSAMINE, 53609-64-6, 0.8% IN DIET FOR 30 WK BEGINNING POST CARCINOGEN TREATMENT (STUDY DURATION: 32 WK), Species: RAT, Strain/Sex: F344/MALE, Target Tissue: Type of Lesion: LUNG: CARCINOMA, Dose [Carcinogen]: 0.1% IN DRINKING WATER FOR 2 WK, Promoter: NONE USED) of the same compound?
The value was 45%, 20%, 56%, not calculated.

And the outcome (Carcinogen: N-BIS(2-HYDROXYPROPYL)NITROSAMINE, 53609-64-6, 0.8% IN DIET FOR 30 WK BEGINNING POST CARCINOGEN TREATMENT (STUDY DURATION: 32 WK), Species: RAT, Strain/Sex: F344/MALE, Target Tissue: Type of Lesion: THYROID: ADENOMA, Dose [Carcinogen]: 0.1% IN DRINKING WATER FOR 2 WK, Promoter: NONE USED)?
The outcome was 5%, 5%, 0, not significant.

And the “tumour outcome (control, treated, inhibition, significance)” value (Carcinogen: N-BIS(2-HYDROXYPROPYL)NITROSAMINE, 53609-64-6, 0.8% IN DIET FOR 30 WK BEGINNING POST CARCINOGEN TREATMENT (STUDY DURATION: 32 WK), Species: RAT, Strain/Sex: F344/MALE, Target Tissue: Type of Lesion: THYROID: CARCINOMA, Dose [Carcinogen]: 0.1% IN DRINKING WATER FOR 2 WK, Promoter: NONE USED)?
The value was 20%, 5%, 75%, not calculated.

What about the “tumour outcome (control, treated, inhibition, significance)” value (Carcinogen: N-NITROSOBIS(2-OXOPROPYL)AMINE, 60599-38-4, 0.75% IN DIET FOR 16 WK BEGINNING 2 WK POST CARCINOGEN TREATMENT (STUDY DURATION: 20 WK), Species: HAMSTER, Strain/Sex: SYRIAN/FEMALE, Target Tissue: Type of Lesion: GALL BLADDER: ADENOMA, Dose [Carcinogen]: 70 MG/KG IN SALINE FOLLOWED 2 WK LATER BY SECOND TREATMENT) of the same compound?
The value was 9/18 (50%), 7/10 (70%), -40%, not calculated.

What about the “tumour outcome (control, treated, inhibition, significance)” value (Carcinogen: N-NITROSOBIS(2-OXOPROPYL)AMINE, 60599-38-4, 0.75% IN DIET FOR 16 WK BEGINNING 2 WK POST CARCINOGEN TREATMENT (STUDY DURATION: 20 WK), Species: HAMSTER, Strain/Sex: SYRIAN/FEMALE, Target Tissue: Type of Lesion: LIVER: CHOLANGIOCARCINOMA, Dose [Carcinogen]: 70 MG/KG IN SALINE FOLLOWED 2 WK LATER BY SECOND TREATMENT) of the same compound?
The value was 16/18 (89%), 8/10 (80%), 10%, not calculated.

And the “tumour outcome (control, treated, inhibition, significance)” value (Carcinogen: N-NITROSOBIS(2-OXOPROPYL)AMINE, 60599-38-4, 0.75% IN DIET FOR 16 WK BEGINNING 2 WK POST CARCINOGEN TREATMENT (STUDY DURATION: 20 WK), Species: HAMSTER, Strain/Sex: SYRIAN/FEMALE, Target Tissue: Type of Lesion: LIVER: NEOPLASTIC NODULE, Dose [Carcinogen]: 70 MG/KG IN SALINE FOLLOWED 2 WK LATER BY SECOND TREATMENT)?
The value was 18/18 (100%), 10/10 (100%), 0%, not significant.

What about the “tumour outcome (control, treated, inhibition, significance)” value (Carcinogen: N-NITROSOBIS(2-OXOPROPYL)AMINE, 60599-38-4, 0.75% IN DIET FOR 16 WK BEGINNING 2 WK POST CARCINOGEN TREATMENT (STUDY DURATION: 20 WK), Species: HAMSTER, Strain/Sex: SYRIAN/FEMALE, Target Tissue: Type of Lesion: PANCREAS: ADENOCARCINOMA, Dose [Carcinogen]: 70 MG/KG IN SALINE FOLLOWED 2 WK BY SECOND TREATMENT) of the same compound?
Its value is 14/18 (78%), 6/10 (60%), 23%, not calculated.

And the “tumour outcome (control, treated, inhibition, significance)” value (Carcinogen: N-NITROSOBIS(2-OXOPROPYL)AMINE, 60599-38-4, 1.5% IN DIET FOR 16 WK BEGINNING 2 WK POST CARCINOGEN TREATMENT (STUDY DURATION: 20 WK), Species: HAMSTER, Strain/Sex: SYRIAN/FEMALE, Target Tissue: Type of Lesion: GALL BLADDER: ADENOMA, Dose [Carcinogen]: 70 MG/KG IN SALINE FOLLOWED 2 WK LATER BY SECOND TREATMENT)?
Its value is 9/18 (50%), 10/17 (59%), -18%, not calculated.

And the “tumour outcome (control, treated, inhibition, significance)” value (Carcinogen: N-NITROSOBIS(2-OXOPROPYL)AMINE, 60599-38-4, 1.5% IN DIET FOR 16 WK BEGINNING 2 WK POST CARCINOGEN TREATMENT (STUDY DURATION: 20 WK), Species: HAMSTER, Strain/Sex: SYRIAN/FEMALE, Target Tissue: Type of Lesion: GALL BLADDER: CARCINOMA, Dose [Carcinogen]: 70 MG/KG IN SALINE FOLLOWED 2 WK LATER BY SECOND TREATMENT)?
Its value is 1/18 (6%), 2/17 (12%), -100%, not calculated.

And the “tumour outcome (control, treated, inhibition, significance)” value (Carcinogen: N-NITROSOBIS(2-OXOPROPYL)AMINE, 60599-38-4, 1.5% IN DIET FOR 16 WK BEGINNING 2 WK POST CARCINOGEN TREATMENT (STUDY DURATION: 20 WK), Species: HAMSTER, Strain/Sex: SYRIAN/FEMALE, Target Tissue: Type of Lesion: LIVER: CHOLANGIOCARCINOMA, Dose [Carcinogen]: 70 MG/KG IN SALINE FOLLOWED 2 WK LATER BY SECOND TREATMENT)?
The value was 16/18 (89%), 11/17 (65%), 27%, not calculated.

What about the “tumour outcome (control, treated, inhibition, significance)” value (Carcinogen: N-NITROSOBIS(2-OXOPROPYL)AMINE, 60599-38-4, 1.5% IN DIET FOR 16 WK BEGINNING 2 WK POST CARCINOGEN TREATMENT (STUDY DURATION: 20 WK), Species: HAMSTER, Strain/Sex: SYRIAN/FEMALE, Target Tissue: Type of Lesion: LIVER: NEOPLASTIC NODULE, Dose [Carcinogen]: 70 MG/KG IN SALINE FOLLOWED 2 WK LATER BY SECOND TREATMENT) of the same compound?
Its value is 100%, 100%, 0%, not significant.

What about the “tumour outcome (control, treated, inhibition, significance)” value (Carcinogen: N-NITROSOBIS(2-OXOPROPYL)AMINE, 60599-38-4, 1.5% IN DIET FOR 16 WK BEGINNING 2 WK POST CARCINOGEN TREATMENT (STUDY DURATION: 20 WK), Species: HAMSTER, Strain/Sex: SYRIAN/FEMALE, Target Tissue: Type of Lesion: PANCREAS: ADENOCARCINOMA, Dose [Carcinogen]: 70 MG/KG IN SALINE FOLLOWED 2 WK LATER BY SECOND TREATMENT) of the same compound?
Its value is 14/18 (78%), 13/17 (76%), 3%, not calculated.
